The source of these data is patent US20230152317A1, “DIAGNOSIS AND TREATMENT OF COVID-19” (priority 2020, published 2023).

The subject of experiment [1] is human pulmonary microvascular endothelial cells (hPMVEC). The experiment in a line: Basal intracellular nitric oxide production in hPMVEC (DAF-FM fluorescence) after hyaluronidase treatment.
Method: Isolation and culture of human pulmonary microvascular endothelial cells (hPMVEC): hPMVEC were isolated from resected human lung as previously described (35, 36). Briefly, human peripheral lung tissue was finely minced, and digested in 0.3% type II collagenase at 37° C. The digested suspension was filtered, centrifuged, and washed in PBS. Endothelial cells were then isolated using magnetic Dynabeads coated with anti-human CD31 antibody. Isolated cells were resuspended in EGM-2 (Lonza #CC-3162) with 10% fetal bovine serum and placed at 37° C. in 5% CO2 until 50% confluent, then harvested and re-purified using anti-CD31-coated magnetic microbeads as above. PMVEC were propagated in EGM-2+10% FBS and 20 mM HEPES on fibronectin-coated flasks and passages 4-9 used.
Hyaluronidase treatment of hPMVEC: PMVEC (2.5×10^4/well) were plated on fibronectin-coated 4-well plates in EGM-2+10% FBS and 20 mM HEPES. After 2 days, media was changed to HBSS (+100 mM HEPES, no bicarb)+0.01% BSA and hPMVEC were treated for 1 h with hyaluronidase (0.5 mg/mL; Sigma #H3506). Following treatment, hPMVEC were loaded with a nitric oxide-sensitive fluorochrome (2 μM DAF-FM DA (Thermo Fisher #D23844) for 1h before lysing with 0.5% SDS in PBS. After centrifugation for 10 min at 1×10^4RCF, the fluorescence of triplicate aliquots of supernatant were measured using a Victor3 multilabel fluorescence microplate reader (Wallac Oy; Perkin Elmer, Inc.) at 485/520 for DAF-FM. The nitric oxide donor DETA NONOate (20 μM; Cayman #82120) was used as the positive control.
A further experiment has as its system COVID-19 patients. To be noted: anticoagulant treatment, reference 49; cited from earlier work.

In the case of `NCCN(CCN)/[N+]([O-])=N/O` [DETA NONOate], the “increase of nitric oxide production” value in experiment [1] (positive control at 20 μM, compared to untreated controls (data not shown)) came out at 16%.
Take Hyaluronidase: the “decrease of basal intracellular nitric oxide production” value in experiment [1] (hyaluronidase 0.5 mg/mL for 1 h, compared to untreated PMVEC, n=5 separate experiments, P=0.008) was found to be 98%. For the same compound, in experiment [1] (hyaluronidase 0.5 mg/mL for 1 h, n=5 separate experiments), the “basal intracellular nitric oxide production after treatment (DAF-FM fluorescence)” value was found to be 64±87.5 RFUs.
As to low molecular weight heparin, the overall survival advantage result in the experiment with COVID-19 patients is given as “did not confer an overall survival advantage”.
